From patent publication US3985766A, “Bis-imidazolyl-bisphenylmethane and salts thereof” (Bayer Aktiengesellschaft, priority 1968, dated 1976) come the findings set out here.

This experiment relates to Trichophyton mentagrophytes. As to the kind of experiment: effectiveness in vitro against human-pathogenic fungi (fungistatic). Type of experiment: cell-based. To be noted: Milieu d'epreuve according to Sabouraud, 28° C. As to the method:
I. effectiveness in vitro against human-pathogenic fungi
1. Trichophyton mentagrophytes:
The test medium was Milieu d'epreuve according to Sabouraud, incubation temperature: 28° C.
For orientation: MIC means the lowest concentration found to suppress growth. `c1ccc(C(c2ccccc2)(n2ccnc2)n2ccnc2)cc1` [compound a), bis-imidazolyl-bis-phenylmethane] displayed a minimum inhibitory concentration (MIC) of less than 4 µg/mL.

The compound `Clc1ccc(C(c2ccccc2)(n2ccnc2)n2ccnc2)cc1` [compound b), bis-imidazolyl-4-chlorophenyl-phenylmethane] showed an MIC of less than 4 µg/mL.

In turn, `Fc1ccc(C(c2ccccc2)(n2ccnc2)n2ccnc2)cc1` [compound c), bis-imidazolyl-4-fluorophenyl-phenylmethane] had a minimum inhibitory concentration (MIC) of less than 4 µg/mL.

Compound `Fc1ccc(C(c2ccccc2F)(n2ccnc2)n2ccnc2)cc1` [compound d), bis-imidazolyl-2,4'-difluoro-diphenylmethane] had an MIC of less than 4 µg/mL.

In the case of `Clc1ccccc1C(c1ccccc1)(n1ccnc1)n1ccnc1` [compound e), bis-imidazolyl-2-chlorophenyl-phenylmethane], the minimal inhibitory concentration (MIC) is less than 4 µg/mL.

`Clc1cccc(C(c2ccccc2)(n2ccnc2)n2ccnc2)c1` [compound f), bis-imidazolyl-3-chlorophenyl-phenylmethane] yielded an MIC of less than 4 µg/mL.

Turning to `N#Cc1ccc(C(c2ccccc2)(n2ccnc2)n2ccnc2)cc1` [compound g), bis-imidazolyl-4-cyanophenyl-phenylmethane], the MIC is less than 40 µg/mL.
